# Experimental data published in article PMC12692713, “Neuroprotective and Antioxidant Properties of Different Novel Steroid-Derived Nitrones and Oximes on Cerebral Ischemia In Vitro” (International Journal of Molecular Sciences, 2025).
# Like-named read-outs stand apart in the source and are kept apart here.
# Target: T1, soybean lipoxygenase (LOX) (Glycine max, UniProt P08170)
# T1 construct: gene LOX1.1
# T1 sequence (P08170 1-839): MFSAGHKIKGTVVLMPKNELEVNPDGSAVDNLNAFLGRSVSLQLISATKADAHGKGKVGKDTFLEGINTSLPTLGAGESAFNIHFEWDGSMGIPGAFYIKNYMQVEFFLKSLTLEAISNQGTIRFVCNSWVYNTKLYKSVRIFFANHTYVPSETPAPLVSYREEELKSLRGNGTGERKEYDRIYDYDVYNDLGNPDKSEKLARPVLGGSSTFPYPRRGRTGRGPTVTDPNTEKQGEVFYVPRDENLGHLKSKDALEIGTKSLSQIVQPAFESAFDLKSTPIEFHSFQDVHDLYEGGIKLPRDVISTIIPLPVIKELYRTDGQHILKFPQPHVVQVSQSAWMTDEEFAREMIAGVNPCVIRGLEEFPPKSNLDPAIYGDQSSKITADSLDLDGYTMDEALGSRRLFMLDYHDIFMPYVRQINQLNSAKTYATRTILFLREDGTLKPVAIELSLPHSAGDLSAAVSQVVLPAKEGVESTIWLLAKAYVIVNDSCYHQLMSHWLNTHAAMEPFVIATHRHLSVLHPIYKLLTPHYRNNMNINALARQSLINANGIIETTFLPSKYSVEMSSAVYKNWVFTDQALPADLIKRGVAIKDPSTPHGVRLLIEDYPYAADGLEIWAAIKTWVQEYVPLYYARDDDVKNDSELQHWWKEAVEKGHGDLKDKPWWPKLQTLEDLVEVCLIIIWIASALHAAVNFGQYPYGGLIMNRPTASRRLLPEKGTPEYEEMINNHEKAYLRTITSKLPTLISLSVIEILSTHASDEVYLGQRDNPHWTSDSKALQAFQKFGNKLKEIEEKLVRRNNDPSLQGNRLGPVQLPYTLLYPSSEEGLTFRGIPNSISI
# Test: UV absorbance at […] nm, conversion of sodium linoleate to 13-hydroperoxylinoleic acid, Tris pH […]
# Format: biochemical
SMILES,IC50,IC50 (read-out: LOX Inhibition (% or IC50))
C#C[C@]1(O)CC[C@H]2[C@@H]3CCC4=CC(=NO)CC[C@]4(C)[C@H]3CC[C@@]21C (mixture of isomers) [MC2],97 ± 1.5 µM,–
C#C[C@]1(O)CC[C@H]2[C@@H]3CCC4=CC(=[N+](C)[O-])CC[C@]4(C)[C@H]3CC[C@@]21C [MC3],62 ± 0.8 µM,–
CC#C[C@]1(O)CC[C@H]2[C@@H]3CCC4=CC(=NO)CCC4=C3[C@@H](c3ccc(N(C)C)cc3)C[C@@]21C [MC4],–,3.8 ± 0.3 µM
